Structures are written as SMILES.

human NK-3 receptor, sequence (P29371 whole entry): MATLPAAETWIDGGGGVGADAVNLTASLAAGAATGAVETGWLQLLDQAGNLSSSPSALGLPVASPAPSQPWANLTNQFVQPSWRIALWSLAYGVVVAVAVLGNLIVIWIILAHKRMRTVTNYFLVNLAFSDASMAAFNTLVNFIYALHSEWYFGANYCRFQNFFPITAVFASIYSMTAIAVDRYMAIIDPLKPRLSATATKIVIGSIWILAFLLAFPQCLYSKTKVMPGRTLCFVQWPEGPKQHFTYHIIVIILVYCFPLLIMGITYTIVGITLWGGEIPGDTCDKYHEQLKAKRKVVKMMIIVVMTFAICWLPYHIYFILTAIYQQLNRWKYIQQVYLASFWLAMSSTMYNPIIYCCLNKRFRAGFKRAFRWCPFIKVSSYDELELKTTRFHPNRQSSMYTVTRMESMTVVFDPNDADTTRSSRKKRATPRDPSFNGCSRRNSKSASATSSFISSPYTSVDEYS

In this assay the target is human NK-3 receptor (Homo sapiens (Human), UniProt P29371). Description: 3H-SB222200 binding competition assay with human NK-3 receptor. The conditions noted are these: 3H-SB222200 displacement, CHO cell membranes expressing human NK3 receptor; read-out: Ki range. The method, boiled down:
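Membranes from CHO cells expressing human NK3 receptor incubated with 5 nM 3H-SB222200 and test compound in HEPES 25 mM/NaCl 0.1M/CaCl2 1 mM/MgCl2 5 mM/BSA 0.5%/saponin 10 μg/ml, pH 7.4. Bound radioligand counted after filtration; Ki calculated, reported in bands (+++ <500 nM to # >5 μM).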
For the molecule `C[C@@H]1c2nnc(-c3csc(N4CCOCC4)n3)n2CCN1C(=O)c1ccc(-c2ccccc2)cc1` [Compound 118, (R)-[1,1′-biphenyl]-4-yl(8-methyl-3-(2-morpholinothiazol-4-yl)-5,6-dihydro-[1,2,4]triazolo[4,3-a]pyrazin-7(8H)-yl)methanone], the Ki (commonly a measure of affinity in units of concentration, obtained from inhibition or displacement) was < 500 nM.
The result for `O=C(c1ccc(-c2cccs2)cc1)N1CCn2c(nnc2-c2csc(N3CCCC3)n2)C1` [Compound 248, (3-(2-(pyrrolidin-1-yl)thiazol-4-yl)-5,6-dihydro-[1,2,4]triazolo[4,3-a]pyrazin-7(8H)-yl)(4-(thiophen-2-yl)phenyl)methanone] reads < 500 nM; that for `O=C(c1ccc(-c2cccs2)cc1)N1CCn2c(nnc2-c2csc(-c3ccccc3)n2)C1` [Compound 54, (3-(2-phenylthiazol-4-yl)-5,6-dihydro-[1,2,4]triazolo[4,3-a]pyrazin-7(8H)-yl)(4-(thiophen-2-yl)phenyl)methanone], < 500 nM; that for `CC1c2nnc(-c3csc(-c4ccc(F)cc4)n3)n2CCN1C(=O)c1cc(F)c(F)c(F)c1` (stereo not drawn) [Compound 113, (3-(2-(4-fluorophenyl)thiazol-4-yl)-8-methyl-5,6-dihydro-[1,2,4]triazolo[4,3-a]pyrazin-7(8H)-yl)(3,4,5-trifluorophenyl)methanone], < 500 nM.
The result for `O=C(c1ccc(F)cc1)N1CCn2c(-c3csc(-c4ccccc4)n3)nnc2C1c1ccc(F)cc1` (stereo not drawn) [Compound 41, (4-fluorophenyl)(8-(4-fluorophenyl)-3-(2-phenylthiazol-4-yl)-5,6-dihydro-[1,2,4]triazolo[4,3-a]pyrazin-7(8H)-yl)methanone] reads < 500 nM; that for `CC1c2nnc(-c3csc(-c4ccc(F)cc4)n3)n2CCN1C(=O)c1ccc(F)c(F)c1` (stereo not drawn) [Compound 110, (3,4-difluorophenyl)(3-(2-(4-fluorophenyl)thiazol-4-yl)-8-methyl-5,6-dihydro-[1,2,4]triazolo[4,3-a]pyrazin-7(8H)-yl)methanone], < 500 nM.
Consider `O=C(c1ccc(-c2ccccc2)cc1)N1CCn2c(nnc2-c2csc(-c3ccccc3F)n2)C1` [Compound 182, [1,1′-biphenyl]-4-yl(3-(2-(2-fluorophenyl)thiazol-4-yl)-5,6-dihydro-[1,2,4]triazolo[4,3-a]pyrazin-7(8H)-yl)methanone], for which the Ki was < 500 nM.
In the case of `O=C(c1ccc(F)cc1)N1CCn2c(cnc2-c2csc(-c3ccc(F)cc3)n2)C1` [Compound 260, (4-fluorophenyl)(3-(2-(4-fluorophenyl)thiazol-4-yl)-5,6-dihydroimidazo[1,5-a]pyrazin-7(8H)-yl)methanone], the Ki is < 500 nM.
Regarding `O=C(c1ccc(F)cc1)N1CCn2c(nnc2-c2nc(-c3ccc(F)cc3)no2)C1` [Compound 175, (4-fluorophenyl)(3-(3-(4-fluorophenyl)-1,2,4-oxadiazol-5-yl)-5,6-dihydro-[1,2,4]triazolo[4,3-a]pyrazin-7(8H)-yl)methanone], the Ki was < 500 nM.
Regarding `O=C(c1ccc(-c2ccsc2)cc1)N1CCn2c(nnc2-c2csc(-c3ccccc3)n2)C1` [Compound 63, (3-(2-phenylthiazol-4-yl)-5,6-dihydro-[1,2,4]triazolo[4,3-a]pyrazin-7(8H)-yl)(4-(thiophen-3-yl)phenyl)methanone], the Ki is < 500 nM.
Next, `CC1c2nnc(-c3csc(-c4ccccc4)n3)n2CCN1C(=O)c1ccc(F)cc1` (stereo not drawn) [Compound 166, (4-fluorophenyl)(8-methyl-3-(2-phenylthiazol-4-yl)-5,6-dihydro-[1,2,4]triazolo[4,3-a]pyrazin-7(8H)-yl)methanone]: < 500 nM.
Consider `C[C@H]1c2nnc(-c3csc(N4CCOCC4)n3)n2CCN1C(=O)c1ccc(-c2cccs2)cc1` [Compound 227, (S)-(8-methyl-3-(2-morpholinothiazol-4-yl)-5,6-dihydro-[1,2,4]triazolo[4,3-a]pyrazin-7(8H)-yl)(4-(thiophen-2-yl)phenyl)methanone], for which the Ki fell in the range of 500 to 1000 nM.

The values are drawn from patent US10544150B2, “NK-3 receptor selective antagonist compounds, pharmaceutical composition and methods for use in NK-3 receptors mediated disorders” (Ogeda SA, priority 2010, dated 2020).
